In PMC5007854, “β-Nitrostyrenes as Potential Anti-leishmanial Agents” (Frontiers in Microbiology, 2016):
Values after ≈ are worked out from the molar mass of the structure shown.

Experiments:
[1] = test system: Escherichia coli ATCC 25922; test: Broth microdilution antibacterial susceptibility (MIC/MBC); assay type: cell-based; conditions: Escherichia coli; for MIC: ATCC25922, 24 h, broth microdilution, 35°C, 24 h, read-out: MIC, Ec ATCC 25922; for MBC: ATCC25922, ≥99.9% reduction of original inoculum, read-out: MBC, Ec ATCC 25922
From the text: (§1) One reference each of the following species was used for their in vitro susceptibility to β-nitrostyrene in this study: Staphylococcus aureus ATCC 29213, Staphylococcus epidermidis ATCC 14990, Escherichia coli ATCC 25922, Pseudomonas aeruginosa ATCC 27853, Candida albicans ATCC 90028, Candida glabrata ATCC 90030, Aspergillus fumigatus ATCC 16424 and Aspergillus niger ATCC 16404. These strains were procured from the American Type Culture Collection (ATCC, Manassas, VA, USA).
(§2) The antibacterial and antifungal activities of the β-nitrostyrenes were performed by broth microdilution methods as per the guidelines of Clinical and Laboratory Standard Institute (Wayne, [1998], [2008a],[b],[c]) by using Mueller-Hinton broth (MHB; Becton-Dickinson, Cockeysville, MD, USA) supplemented with calcium (25 mg/L) and magnesium (12.5 mg/L) for bacterial strains while as RPMI 1640 medium with L-glutamine and without sodium bicarbonate, buffered to pH 7.0 with 0.165 M 3-(N-morpholino) propanesulfonic acid (MOPS; both from Sigma) was used for fungal strains. Stock solutions were prepared in 100% dimethyl sulfoxide (DMSO; Sigma; distilled water was used for ciprofloxacin), with a final DMSO concentration of 1% (vol. per vol.) and two-fold serial dilutions were prepared in media in amounts of 100 μL per well in 96-well U-bottom microtiter plates (Tarsons, Kolkata, India) to yield twice the final concentration required for testing, which ranged from 64 to 0.12 μg/mL for β-nitrostyrenes and 16 to 0.03 μg/mL for ciprofloxacin as well as amphotericin B. Stock inoculum suspensions of the bacteria, Candida species and Aspergillus species were prepared in sterile normal saline (0.85%) containing 0.05% polysorbate 20 (NST) from overnight (3 to 5-day old for Aspergillus species) strains grown on Trypticase soy agar (TSA; Becton-Dickinson) and potato dextrose agar (Difco Laboratories, Detroit, MI, USA) respectively at 35°C. Inocula were verified for each assay by plating onto agar plates for colony enumeration. These suspensions were further diluted in the respective test medium and a 100 μl volume of this diluted inoculum was added to each well of the plate, resulting in a final inoculum concentration of approximately 5 × 10^5 CFU/mL for bacter1ia, (Wayne, [2008a]) approximately 2.5 × 10^4 CFU/ml for Candida species (Pfaller et al., [2004]) while as 0.4 × 10^4 to 5 × 10^4 CFU/mL for Aspergillus species (Wayne, [2008c]). Untreated growth control, vehicle control (DMSO) and sterility control wells were included for each isolate tested. Ciprofloxacin and amphotericin B served as the standard drug controls for bacterial and fungal strains, respectively. The microtiter plates were incubated at 35°C for 24 h for bacterial strains and 48 h for fungal strains. The plates were read visually and the minimum inhibitory concentration (MIC) was defined as the lowest concentration of test sample that prevented visible growth with respect to the growth control.
(§3) The minimum bactericidal concentration (MBC) and minimum fungicidal concentration (MFC) were determined by plating 100 μl volumes on agar plates from the wells showing no visible growth (clear MIC well). The plates were incubated as described above in MIC measurements. […] All experiments were conducted twice in duplicates on separate occasions with freshly prepared inoculums and stock solutions.

[2] = test system: Pseudomonas aeruginosa ATCC 27853; test: as above; assay type: cell-based; conditions: Pseudomonas aeruginosa; for MIC: ATCC27853, 24 h, broth microdilution, 35°C, 24 h, read-out: MIC, Pa ATCC 27853; for MBC: ATCC27853, ≥99.9% reduction of original inoculum, read-out: MBC, Pa ATCC 27853
From the text: as §1, §2, §3

[3] = test system: Staphylococcus aureus ATCC 29213; test: as above; assay type: cell-based; conditions: Staphylococcus aureus; for MIC: ATCC29213, 24 h, broth microdilution, 35°C, 24 h, read-out: MIC, Sa ATCC 29213; for MBC: ATCC29213, ≥99.9% reduction of original inoculum, read-out: MBC, Sa ATCC 29213
From the text: as §1, §2, §3

[4] = test system: Staphylococcus epidermidis ATCC 14990; test: as above; assay type: cell-based; conditions: Staphylococcus epidermidis; for MIC: ATCC14990, 24 h, broth microdilution, 35°C, 24 h, read-out: MIC, Se ATCC 14990; for MBC: ATCC14990, ≥99.9% reduction of original inoculum, read-out: MBC, Se ATCC 14990
From the text: as §1, §2, §3

[5] = test system: Aspergillus fumigatus ATCC 16424; test: Broth microdilution antifungal susceptibility (MIC/MFC); assay type: cell-based; conditions: Aspergillus fumigatus; for MIC: ATCC16424, 48 h, broth microdilution, 35°C, 48 h, read-out: MIC, Af ATCC 16424; for MFC: ATCC16424, ≥99.9% reduction of original inoculum, read-out: MFC, Af ATCC 16424
From the text: as §1, §2, §3

[6] = test system: Aspergillus niger ATCC 16404; test: as above; assay type: cell-based; conditions: Aspergillus niger; for MIC: ATCC16404, 48 h, broth microdilution, 35°C, 48 h, read-out: MIC, An ATCC 16404; for MFC: ATCC16404, ≥99.9% reduction of original inoculum, read-out: MFC, An ATCC 16404
From the text: as §1, §2, §3

[7] = test system: Candida albicans ATCC 90028; test: as above; assay type: cell-based; conditions: Candida albicans; for MIC: ATCC90028, 48 h, broth microdilution, 35°C, 48 h, read-out: MIC, Ca ATCC 90028; for MFC: ATCC90028, ≥99.9% reduction of original inoculum, read-out: MFC, Ca ATCC 90028
From the text: as §1, §2, §3

[8] = test system: Candida glabrata ATCC 90030; test: as above; assay type: cell-based; conditions: Nakaseomyces glabratus; for MIC: ATCC90030, 48 h, broth microdilution, 35°C, 48 h, read-out: MIC, Cg ATCC 90030; for MFC: ATCC90030, ≥99.9% reduction of original inoculum, read-out: MFC, Cg ATCC 90030
From the text: as §1, §2, §3

[9] = test system: L. donovani promastigotes; test: Anti-leishmanial screening at 100 μM, parasite viability by microscopy; assay type: cell-based, Leishmania donovani; conditions: L. donovani promastigotes
Description: L. donovani parasites (MHOM/IN/83/AG83) were maintained in vivo in BALB/c mice. Promastigotes were routinely cultured at 22°C in medium M199 supplemented with 10% heat inactivated fetal bovine serum (FBS, HiMedia Laboratories, Mumbai, India), penicillin 100 (IU/ml), streptomycin (100 μg/ml). Log phase promastigotes were sub-cultured every 72–96 h, the inoculum being 2 × 10^6 cells/ml (Afrin et al., [2002]).
Nitrostyrine series were screened for their antileishmanial activity against L. donovani promastigotes in vitro. Promastigotes of L. donovani (2 × 10^6 cells/mL) in M199 medium were incubated at 22°C for 72 h with each compound at a concentration of 100 μM. Amphotericin B (AmB) served as reference drug, 0.2% DMSO was used as solvent control. Parasites with media alone were taken as control. Parasite viability was determined microscopically after 72 h (Islamuddin et al., [2014b]).

Compound | MIC [1] | MBC [1] | MIC [2] | MBC [2] | MIC [3] | MBC [3] | MIC [4] | MBC [4] | MIC [5] | MFC [5] | MIC [6] | MFC [6] | MIC [7] | MFC [7] | MIC [8] | MFC [8] | Anti-leishmanial activity, in words (SAR discussion) [9] | melting point
CC/C(=C(/C)c1cccc(O)c1)[N+](=O)[O-] [Compound 26, 3-((E)-3-nitropent-2-en-2-yl)phenol] | > 64 mg/L | > 64 mg/L | > 64 mg/L | > 64 mg/L | 8 mg/L (≈ 38.6 µM) | 16 mg/L (≈ 77.2 µM) | 8 mg/L (≈ 38.6 µM) | 8 mg/L (≈ 38.6 µM) | > 64 mg/L | > 64 mg/L | 64 mg/L (≈ 309 µM) | > 64 mg/L | > 64 mg/L | > 64 mg/L | > 64 mg/L | > 64 mg/L | loss of activity | 138 to 140 °C
CCOc1cccc(/C=C/[N+](=O)[O-])c1O [Compound 27, 2-ethoxy-6-((E)-2-nitrovinyl) phenol] | > 64 mg/L | > 64 mg/L | > 64 mg/L | > 64 mg/L | 32 mg/L (≈ 153 µM) | 32 mg/L (≈ 153 µM) | 16 mg/L (≈ 76.5 µM) | 16 mg/L (≈ 76.5 µM) | 16 mg/L (≈ 76.5 µM) | 16 mg/L (≈ 76.5 µM) | 8 mg/L (≈ 38.2 µM) | 8 mg/L (≈ 38.2 µM) | 32 mg/L (≈ 153 µM) | 32 mg/L (≈ 153 µM) | 16 mg/L (≈ 76.5 µM) | 16 mg/L (≈ 76.5 µM) | inactive | 128 to 130 °C
